Laboratory results: patent US20240108634A1, “COMPOSITIONS AND METHODS FOR INHIBITING YAP” (The United States Government as represented by the …, priority 2021, published 2024)

Biological target: T1, full-length YAP (Homo sapiens, UniProt P46937)
T1 construct: made in house; host or cells: bacterial (inferred)
Experiment: Surface plasmon resonance of NSC682769 analyte on immobilized full-length YAP
Conditions: SPR, 25° C., read-out: Kd from steady-state binding
Method: FIGS. 1A-G show the identification of a YAP1-TEAD1 binding interface inhibitor. […] The Gal4 DBD was fused to residues 50-171 of human YAP1 and the Gal4 AD was fused to residues 194-411 of human TEAD1. These fusions were expressed in yeast containing reporters harboring Gal4 upstream activating sequences (UAS). […] Yeast expressing either p53-DBD and SV40 large T antigen-AD fusions or YAP1-DBD and TEAD1-AD fusions were plated on selective media. Compounds were pinned onto the plate surfaces by robotic transfer and subsequently examined for halo formation (indicated by red circles). Compounds inhibiting YAP1-TEAD1 mediated growth on selective media while having no effect on p53-T antigen mediated yeast growth were considered specific. […] Pull-down products were analyzed by SDS-PAGE and silver staining. […] Raw binding sensorgrams obtained at each concentration were fitted to a 1:1 binding model and Kon, Koff and KD were calculated by simultaneous non-linear regression analyses.
Surface plasmon resonance (SPR), ELISA, YAP-TEAD reporter activity, cellular fractionation, and immunofluorescence analyses. […] YAP-TEAD reporter activity was determined as previously described (Kim N G, Gumbiner B M (2015) J Cell Biol 210: 503-515). […] Luciferase activity was measured via a luciferase assay system (Promega). […] Cell lysis was monitored by trypan blue staining. […]

T1 sequence (P46937 whole entry): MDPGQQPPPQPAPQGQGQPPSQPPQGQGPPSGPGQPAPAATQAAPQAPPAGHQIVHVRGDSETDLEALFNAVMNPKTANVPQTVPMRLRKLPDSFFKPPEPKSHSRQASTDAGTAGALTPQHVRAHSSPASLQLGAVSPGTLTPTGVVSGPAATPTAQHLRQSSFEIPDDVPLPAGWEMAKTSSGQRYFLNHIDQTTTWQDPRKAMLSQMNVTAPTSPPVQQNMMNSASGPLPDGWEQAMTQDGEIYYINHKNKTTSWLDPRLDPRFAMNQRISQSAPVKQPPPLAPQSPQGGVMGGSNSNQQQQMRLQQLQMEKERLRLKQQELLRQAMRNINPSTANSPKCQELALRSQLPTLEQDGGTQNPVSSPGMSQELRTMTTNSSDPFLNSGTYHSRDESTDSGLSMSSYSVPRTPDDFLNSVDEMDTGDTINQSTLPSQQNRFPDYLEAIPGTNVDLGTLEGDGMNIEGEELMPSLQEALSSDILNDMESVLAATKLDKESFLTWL

SMILES: COc1ccc(-c2cc(-c3ccccc3)nc3c2CC(=O)Nc2ccccc2-3)cc1OC [NSC682769]
- Kd: 738 nM
